Measurements published in patent publication US6465482B2, “Arylpiperazinyl-cyclohexyl indole derivatives for the treatment of depression” (Wyeth, priority 1999, dated 2002).
Where a name gives a salt, the structure may show the parent alone.

In the case of `Fc1ccc2[nH]cc([C@H]3CC[C@H](N4CCN(c5cccc6[nH]ccc56)CC4)CC3)c2c1` (as salt: HCl) [Example 3b, 5-Fluoro-3-[trans-4-[4-(1H-indol-4-yl)-1-piperazinyl]cyclohexyl]-1H-indole], the melting point is reported as 280 °C (dec.). In the case of `Fc1ccc2c(c1)[nH]cc2[C@H]1CC[C@@H](N2CCN(c3cccc4[nH]ccc34)CC2)CC1` (as salt: HCl) [Example 4a, 6-Fluoro-3-[cis-4-[4-(1H-indol-4-yl)-1-piperazinyl]cyclohexyl]-1H-indole], the melting point is reported as 250 to 252 °C (dec.). With `Fc1ccc2c(c1)[nH]cc2[C@H]1CC[C@H](N2CCN(c3cccc4[nH]ccc34)CC2)CC1` (as salt: HCl) [Example 4b, 6-Fluoro-3-[trans-4-[4-(1H-indol-4-yl)-1-piperazinyl]cyclohexyl]-1H-indole] the melting point was 319 to 320 °C (dec.). For `Brc1ccc2[nH]cc([C@H]3CC[C@@H](N4CCN(c5cccc6[nH]ccc56)CC4)CC3)c2c1` (as salt: HCl) [Example 5a, 5-Bromo-3-[cis-4-[4-(1H-indol-4-yl)-1-piperazinyl]cyclohexyl]-1H-indole], the melting point was 276 °C. Work on `Brc1ccc2[nH]cc([C@H]3CC[C@H](N4CCN(c5cccc6[nH]ccc56)CC4)CC3)c2c1` (as salt: HCl) [Example 5b, 5-Bromo-3-[trans-4-[4-(1H-indol-4-yl)-1-piperazinyl]cyclohexyl]-1H-indole] yielded a melting point greater than 300 °C. For `N#Cc1ccc2[nH]cc([C@H]3CC[C@@H](N4CCN(c5cccc6[nH]ccc56)CC4)CC3)c2c1` (as salt: HCl) [Example 7a, 3-{4-[(1,4-cis)-4-(1H-Indol-4-yl)-piperazinyl-1-yl]cyclohexyl}-1H-indole-5-carbonitrile], the melting point was 216 to 218 °C. Compound `N#Cc1ccc2[nH]cc([C@H]3CC[C@H](N4CCN(c5cccc6[nH]ccc56)CC4)CC3)c2c1` (as salt: HCl) [Example 7b, 3-{4-[(1,4-trans)-4-(1H-Indol-4-yl)-piperazinyl-1-yl]cyclohexyl}-1H-indole-5-carbonitrile] has a melting point greater than 310 °C. `Cc1[nH]c2ccccc2c1[C@H]1CC[C@H](N2CCN(c3cccc4[nH]ccc34)CC2)CC1` (as salt: HCl) [Example 9b, 3-[trans-4-[4-(1H-Indol-4-yl)-1-piperazinyl]cyclohexyl]-2-methyl-1H-indole] gave a melting point greater than 310 °C. In the case of `c1cc(N2CCN([C@H]3CC[C@@H](c4c[nH]c5ncccc54)CC3)CC2)c2cc[nH]c2c1` (as salt: HCl) [Example 10a, 3-{(1,4-cis)-4-[4-(1H-Indole-4-yl)-piperazin-1-yl]-cyclohexyl}-1H-pyrrolo[2,3-b]pyridine], the melting point is reported as > 250 °C (dec.). With `c1cc(N2CCN([C@H]3CC[C@H](c4c[nH]c5ncccc54)CC3)CC2)c2cc[nH]c2c1` (as salt: HCl) [Example 10b, 3-{(1,4-trans)-4-[4-(1H-Indole-4-yl)-piperazin-1-yl]-cyclohexyl}-1H-pyrrolo[2,3-b]pyridine] the melting point was > 250 °C (dec.). With `CCn1cc([C@H]2CC[C@H](N3CCN(c4cccc5[nH]ccc45)CC3)CC2)c2cc(C#N)ccc21` (as salt: HCl) [Example 13b, 1-Ethyl-3-{(1,4-trans)-4-[4-(1H-indol-4-yl)-piperazin-1-yl]-cyclohexyl}-1H-indole-5-carbonitrile] the melting point was 250 °C (dec.). With `Cn1ccc2c(N3CCN([C@H]4CC[C@@H](c5cn(C)c6ccc(C#N)cc65)CC4)CC3)cccc21` (as salt: HCl) [Example 17, 1-Methyl-3-{(1,4-cis)-4-[4-(1-methyl-1H-indol-4-yl)-piperazin-1-yl]-cyclohexyl}-1H-indole-5-carbonitrile] the melting point was 252 to 255 °C. Work on `COc1ccccc1N1CCN([C@H]2CC[C@@H](c3c[nH]c4ccc(F)cc43)CC2)CC1` (as salt: HCl) [Example 18, 5-Fluoro-3-{(cis)-4-[4-(2-methoxy-phenyl)-piperazin-1-yl]-cyclohexyl}-1H-indole] yielded a melting point of 170 to 172 °C. In the case of `COc1ccccc1C1CCN([C@H]2CC[C@@H](c3c[nH]c4ccc(F)cc43)CC2)CC1` (as salt: HCl) [Example 19a, 5-Fluoro-3-{(1,4-cis)-4-[4-(2-methoxy-phenyl)-piperidin-1-yl]-cyclohexyl}-1H-indole], the melting point is reported as 245 to 250 °C. Work on `COc1ccccc1C1CCN([C@H]2CC[C@H](c3c[nH]c4ccc(F)cc43)CC2)CC1` (as salt: HCl) [Example 19b, 5-Fluoro-3-{(1,4-trans)-4-[4-(2-methoxy-phenyl)-piperidin-1-yl]-cyclohexyl}-1H-indole] yielded a melting point of 297 to 299 °C. In the case of `COc1ccc2[nH]cc([C@H]3CC[C@@H](N4CCN(c5ccccc5OC)CC4)CC3)c2c1` (as salt: HCl) [Example 20a, 5-Methoxy-3-{(1,4-cis)-4-[4-(2-methoxy-phenyl)-piperazin-1-yl]-cyclohexyl}-1H-indole], the melting point is reported as 198 to 199 °C. For `COc1ccc2[nH]cc([C@H]3CC[C@H](N4CCN(c5ccccc5OC)CC4)CC3)c2c1` (as salt: HCl) [Example 20b, 5-Methoxy-3-{(1,4-trans)-4-[4-(2-methoxy-phenyl)-piperazin-1-yl]-cyclohexyl}-1H-indole], the melting point was 195 to 197 °C. `COc1ccccc1N1CCN([C@H]2CC[C@@H](c3c[nH]c4ncccc43)CC2)CC1` (as salt: HCl) [Example 21, 3-{(1,4-cis)-4-[4-(2-Methoxy-phenyl)-piperazin-1-yl]-cyclohexyl}-1H-pyrrolo[2,3-b]pyridine] showed a melting point of 259 to 261 °C. For `COc1ccc(F)cc1N1CCN([C@H]2CC[C@@H](c3c[nH]c4ccc(F)cc43)CC2)CC1` (as salt: HCl) [Example 22a, 5-Fluoro-3-{(cis)-4-[4-(5-fluoro-2-methoxy-phenyl)-piperazin-1-yl]-cyclohexyl}-1H-indole], the melting point was 171 to 174 °C. With `COc1ccc(F)cc1N1CCN([C@H]2CC[C@H](c3c[nH]c4ccc(F)cc43)CC2)CC1` (as salt: HCl) [Example 22b, 5-Fluoro-3-{(trans)-4-[4-(5-fluoro-2-methoxy-phenyl)-piperazin-1-yl]-cyclohexyl}-1H-indole] the melting point was 272 to 273.5 °C. In the case of `Fc1cccc2[nH]cc([C@H]3CC[C@@H](N4CCN(c5cccc6c5OCCO6)CC4)CC3)c12` (as salt: HCl) [Example 23a, 3-{(1,4-cis)-4-[4-(2,3-Dihydro-benzo[1,4]dioxin-5-yl)-piperazin-1-yl]-cyclohexyl}-4-fluoro-1H-indole], the melting point is reported as 215 to 220 °C. `Fc1ccc2c(c1)[nH]cc2[C@H]1CC[C@@H](N2CCN(c3cccc4c3OCCO4)CC2)CC1` (as salt: HCl) [Example 25a, 3-{(1,4-cis)-4-[4-(2,3-Dihydro-benzo[1,4]dioxin-5-yl)-piperazin-1-yl]-cyclohexyl}-6-fluoro-1H-indole] gave a melting point of 228 to 230 °C. Compound `Fc1ccc2c(c1)[nH]cc2[C@H]1CC[C@H](N2CCN(c3cccc4c3OCCO4)CC2)CC1` (as salt: HCl) [Example 25b, 3-{(1,4-trans)-4-[4-(2,3-Dihydro-benzo[1,4]dioxin-5-yl)-piperazin-1-yl]-cyclohexyl}-6-fluoro-1H-indole] has a melting point of 309 to 310 °C. With `N#Cc1ccc2[nH]cc([C@H]3CC[C@@H](N4CCN(c5cccc6c5OCCO6)CC4)CC3)c2c1` (as salt: HCl) [Example 26a, 3-{(1,4-cis)-4-[4-(2,3-Dihydro-benzo[1,4]dioxin-5-yl)-piperazin-1-yl]-cyclohexyl}-1H-indole-5-carbonitrile] the melting point was 300 °C.
